Measurements: patent US10897898B2, “Herbicidal composition comprising cinmethylin and acetochlor or pretilachlor” (BASF Agro B.V., priority 2015, dated 2021)

Key:
Type in all cases: in vivo
Conditions in all cases: 20 DAT
Polygonum convolvulus = experiment: greenhouse pre-emergence herbicidal activity on POLCO
Protocol: (§1) The test plants have been seeded, separately for each species, in plastic containers in sandy loamy soil containing 5% of organic matter.
(§2) The containers were irrigated gently to promote germination and growth and subsequently covered with transparent plastic hoods until the plants had rooted.
(§3) The plants have been cultivated due to their individual requirements at 10-25° C. and 20-35° C. The plants were irrigated due to their necessity.
(§4) The racemic mixture (±)-2-exo-(2-Methylbenzyloxy)-1-methyl-4-isopropyl-7-oxabicyclo[2.2.1]heptane was used as herbicide A and formulated as emulsifiable concentrates with an active ingredient concentration of 50 g/l, 100 g/l or 750 g/l respectively.
(§5) Acetochlor (herbicide B.1) was used as an encapsulated (CS) formulation having an active ingredient concentration of 400 g/l+67 g/l dichlormid as safener.
(§6) Pretilachlor (herbicide B.2) was used as emulsifiable concentrate (EC) formulation having an active ingredient concentration of 120 g/l.
(§7) In the following experiments, the herbicidal activity for the individual herbicidal compositions (solo and mixture applications) was assessed 20 days after treatment (DAT).
(§8) The evaluation for the damage on undesired weeds caused by the chemical compositions was carried out using a scale from 0 to 100%, compared to the untreated control plants. Here, 0 means no damage and 100 means complete destruction of the plants.
(§9) E=X+Y−(X·Y/100) where X=effect in percent using herbicide A at an application rate a; • Y=effect in percent using herbicide B at application rate b; • E=expected effect (in %) of herbicide A+herbicide B at application rates a+b.
(§10) The value E corresponds to the effect (plant damage or injury) which is to be expected if the activity of the individual compounds is additive. If the observed effect is higher than the value E calculated according to the Colby equation, a synergistic effect is present.
(§11) Tables 1 and 2 below relate to the herbicidal activity, in greenhouse trials, of the individual actives and the combinations applied at different rates and ratios, in pre-emergence application at 20 days after treatment (DAT).

Lolium multiflorum = experiment: greenhouse pre-emergence herbicidal activity on LOLMU
Protocol: as §1, §2, §3, §4, §5, §6, §7, §8, §9, §10, §11

Alopecurus myosuroides = experiment: greenhouse pre-emergence herbicidal activity on ALOMY
Protocol: as §1, §2, §3, §4, §5, §6, §7, §8, §9, §10, §11

Chenopodium album = experiment: greenhouse pre-emergence herbicidal activity on CHEAL
Protocol: as §1, §2, §3, §4, §5, §6, §7, §8, §9
(§12) The value E corresponds to the effect (plant damage or injury) which is to be expected if the activity of the individual compounds is additive. If the observed effect is higher than the value E calculated according to the Colby equation, a synergistic effect is present. […]

Avena fatua = experiment: greenhouse pre-emergence herbicidal activity on AVEFA
Protocol: as §1, §2, §3, §4, §5, §6, §7, §8, §9, §10, §11

Anthemis arvensis = experiment: greenhouse pre-emergence herbicidal activity on ANTAR
Protocol: as §1, §2, §3, §4, §5, §6, §7, §8, §9, §10, §11

Stellaria media = experiment: greenhouse pre-emergence herbicidal activity on STEME
Protocol: as §1, §2, §3, §4, §5, §6, §7, §8, §9, §10, §11

Abutilon theophrasti = experiment: greenhouse pre-emergence herbicidal activity on ABUTH
Protocol: as §1, §2, §3, §4, §5, §6, §7, §8, §9, §10, §11

Setaria viridis = experiment: greenhouse pre-emergence herbicidal activity on SETVI
Protocol: as §1, §2, §3, §4, §5, §6, §7, §8, §9, §10, §11

Sorghum halepense = experiment: greenhouse pre-emergence herbicidal activity on SORHA
Protocol: as §1, §2, §3, §4, §5, §6, §7, §8, §9, §10, §11

Echinochloa crus-galli = experiment: greenhouse pre-emergence herbicidal activity on ECHCG
Protocol: as §1, §2, §3, §4
Acetochlor (herbicide B.1) was used as an encapsulated (CS) formulation having an active ingredient concentration of 400 g/l+67 g/l dichlormid as safener. […]
In the following experiments, the herbicidal activity for the individual herbicidal compositions (solo and mixture applications) was assessed 20 days after treatment (DAT). […]
as §12

Geranium dissectum = experiment: greenhouse pre-emergence herbicidal activity on GERDI
Protocol: as §1, §2, §3, §4, §5, §6, §7, §8, §9, §10, §11

CCOCN(C(=O)CCl)c1c(C)cccc1CC [acetochlor, 2-chloro-N-(ethoxymethyl)-N-(2-ethyl-6-methylphenyl)acetamide]
herbicidal activity, solo application acetochlor (Polygonum convolvulus; 125 g ai/ha): 0% | herbicidal activity, solo application acetochlor (Polygonum convolvulus; 250 g ai/ha): 20% | herbicidal activity, solo application acetochlor (Polygonum convolvulus; 500 g ai/ha): 40% | herbicidal activity, solo application acetochlor (Lolium multiflorum; 63 g ai/ha): 70% | herbicidal activity, solo application acetochlor (Lolium multiflorum; 250 g ai/ha): 95% | herbicidal activity, solo application acetochlor (Alopecurus myosuroides; 63 g ai/ha): 50% | herbicidal activity, solo application acetochlor (Chenopodium album; 63 g ai/ha): 40% | herbicidal activity, solo application acetochlor (Avena fatua; 63 g ai/ha): 20% | herbicidal activity, solo application acetochlor (Avena fatua; 125 g ai/ha): 70% | herbicidal activity, solo application acetochlor (Avena fatua; 250 g ai/ha): 70% | herbicidal activity, solo application acetochlor (Avena fatua; 500 g ai/ha): 80% | herbicidal activity, solo application acetochlor (Anthemis arvensis; 63 g ai/ha): 35% | herbicidal activity, solo application acetochlor (Anthemis arvensis; 125 g ai/ha): 70% | herbicidal activity, solo application acetochlor (Anthemis arvensis; 250 g ai/ha): 80% | herbicidal activity, solo application acetochlor (Anthemis arvensis; 500 g ai/ha): 90% | herbicidal activity, solo application acetochlor (Stellaria media; 250 g ai/ha): 98% | herbicidal activity, solo application acetochlor (Abutilon theophrasti; 63 g ai/ha): 0% | herbicidal activity, solo application acetochlor (Abutilon theophrasti; 125 g ai/ha): 0%

CCCOCCN(C(=O)CCl)c1c(CC)cccc1CC [pretilachlor, 2-chloro-N-(2,6-diethylphenyl)-N-(2-propoxyethyl)acetamide]
herbicidal activity, solo application pretilachlor (Polygonum convolvulus; 63 g ai/ha): 15% | herbicidal activity, solo application pretilachlor (Polygonum convolvulus; 125 g ai/ha): 20% | herbicidal activity, solo application pretilachlor (Lolium multiflorum; 31.3 g ai/ha): 0% | herbicidal activity, solo application pretilachlor (Lolium multiflorum; 63 g ai/ha): 0% | herbicidal activity, solo application pretilachlor (Lolium multiflorum; 125 g ai/ha): 25% | herbicidal activity, solo application pretilachlor (Setaria viridis; 31.3 g ai/ha): 25% | herbicidal activity, solo application pretilachlor (Setaria viridis; 63 g ai/ha): 50% | herbicidal activity, solo application pretilachlor (Setaria viridis; 125 g ai/ha): 60% | herbicidal activity, solo application pretilachlor (Alopecurus myosuroides; 63 g ai/ha): 40% | herbicidal activity, solo application pretilachlor (Alopecurus myosuroides; 125 g ai/ha): 40% | herbicidal activity, solo application pretilachlor (Sorghum halepense; 63 g ai/ha): 20% | herbicidal activity, solo application pretilachlor (Sorghum halepense; 125 g ai/ha): 30% | herbicidal activity, solo application pretilachlor (Sorghum halepense; 250 g ai/ha): 55% | herbicidal activity, solo application pretilachlor (Echinochloa crus-galli; 31.3 g ai/ha): 20% | herbicidal activity, solo application pretilachlor (Chenopodium album; 31.3 g ai/ha): 30% | herbicidal activity, solo application pretilachlor (Avena fatua; 63 g ai/ha): 15% | herbicidal activity, solo application pretilachlor (Avena fatua; 125 g ai/ha): 20% | herbicidal activity, solo application pretilachlor (Avena fatua; 250 g ai/ha): 25% | herbicidal activity, solo application pretilachlor (Geranium dissectum; 31.3 g ai/ha): 0% | herbicidal activity, solo application pretilachlor (Geranium dissectum; 63 g ai/ha): 0% | herbicidal activity, solo application pretilachlor (Geranium dissectum; 125 g ai/ha): 20% | herbicidal activity, solo application pretilachlor (Anthemis arvensis; 31.3 g ai/ha): 20% | herbicidal activity, solo application pretilachlor (Anthemis arvensis; 63 g ai/ha): 20% | herbicidal activity, solo application pretilachlor (Anthemis arvensis; 125 g ai/ha): 30% | herbicidal activity, solo application pretilachlor (Anthemis arvensis; 250 g ai/ha): 30% | herbicidal activity, solo application pretilachlor (Stellaria media; 31.3 g ai/ha): 30% | herbicidal activity, solo application pretilachlor (Stellaria media; 63 g ai/ha): 25% | herbicidal activity, solo application pretilachlor (Stellaria media; 125 g ai/ha): 30%

(±)-2-exo-(2-Methylbenzyloxy)-1-methyl-4-isopropyl-7-oxabicyclo[2.2.1]heptane [herbicide A]
herbicidal activity, solo application herbicide A (Polygonum convolvulus; 62.5 g ai/ha): 0% | herbicidal activity, solo application herbicide A (Polygonum convolvulus; 125 g ai/ha): 0% | herbicidal activity, solo application herbicide A (Polygonum convolvulus; 250 g ai/ha): 15% | herbicidal activity, solo application herbicide A (Lolium multiflorum; 31.25 g ai/ha): 60% | herbicidal activity, solo application herbicide A (Lolium multiflorum; 62.5 g ai/ha): 75% | herbicidal activity, solo application herbicide A (Lolium multiflorum; 125 g ai/ha): 85% | herbicidal activity, solo application herbicide A (Setaria viridis; 31.25 g ai/ha): 90% | herbicidal activity, solo application herbicide A (Setaria viridis; 62.5 g ai/ha): 98% | herbicidal activity, solo application herbicide A (Setaria viridis; 125 g ai/ha): 98% | herbicidal activity, solo application herbicide A (Alopecurus myosuroides; 31.25 g ai/ha): 98% | herbicidal activity, solo application herbicide A (Alopecurus myosuroides; 62.5 g ai/ha): 98% | herbicidal activity, solo application herbicide A (Alopecurus myosuroides; 125 g ai/ha): 98% | herbicidal activity, solo application herbicide A (Sorghum halepense; 62.5 g ai/ha): 80% | herbicidal activity, solo application herbicide A (Sorghum halepense; 125 g ai/ha): 95% | herbicidal activity, solo application herbicide A (Sorghum halepense; 250 g ai/ha): 98% | herbicidal activity, solo application herbicide A (Echinochloa crus-galli; 31.25 g ai/ha): 98% | herbicidal activity, solo application herbicide A (Chenopodium album; 31.25 g ai/ha): 40% | herbicidal activity, solo application herbicide A (Avena fatua; 31.25 g ai/ha): 0% | herbicidal activity, solo application herbicide A (Avena fatua; 62.5 g ai/ha): 0% | herbicidal activity, solo application herbicide A (Avena fatua; 125 g ai/ha): 25% | herbicidal activity, solo application herbicide A (Avena fatua; 250 g ai/ha): 35% | herbicidal activity, solo application herbicide A (Geranium dissectum; 31.25 g ai/ha): 50% | herbicidal activity, solo application herbicide A (Geranium dissectum; 62.5 g ai/ha): 60% | herbicidal activity, solo application herbicide A (Geranium dissectum; 125 g ai/ha): 60% | herbicidal activity, solo application herbicide A (Anthemis arvensis; 31.25 g ai/ha): 0% | herbicidal activity, solo application herbicide A (Anthemis arvensis; 62.5 g ai/ha): 0% | herbicidal activity, solo application herbicide A (Anthemis arvensis; 125 g ai/ha): 0% | herbicidal activity, solo application herbicide A (Anthemis arvensis; 250 g ai/ha): 30% | herbicidal activity, solo application herbicide A (Stellaria media; 31.25 g ai/ha): 30% | herbicidal activity, solo application herbicide A (Stellaria media; 62.5 g ai/ha): 30% | herbicidal activity, solo application herbicide A (Stellaria media; 125 g ai/ha): 40% | herbicidal activity, solo application herbicide A (Abutilon theophrasti; 31.25 g ai/ha): 30% | herbicidal activity, solo application herbicide A (Abutilon theophrasti; 62.5 g ai/ha): 60%
